{"source": "ChEMBL document CHEMBL1123009", "about": "“Synthesis and antimicrobial evaluation of bicyclomycin analogues” (1985)", "key": {"[1]": {"system": "Staphylococcus aureus", "assay": "Minimum inhibitory concentration against gram-negative and gram-positive bacterial strains; Not active.", "assay_type": "functional, organism-based"}, "[2]": {"system": "Staphylococcus aureus", "assay": "Compound was evaluated for its antibiotic activity against gram-negative and gram-positive bacterial strains; NA = not active", "assay_type": "functional, organism-based"}, "[3]": {"system": "Saccharomyces cerevisiae", "assay": "Minimum inhibitory concentration against Saccharomyces cerevisiae 90", "assay_type": "functional"}, "[4]": {"system": "Proteus vulgaris", "assay": "Minimum inhibitory concentration against Proteus vulgaris 101N", "assay_type": "functional"}, "[5]": {"system": "Mycolicibacterium phlei", "assay": "Minimum inhibitory concentration against Mycobacterium phlei 78", "assay_type": "functional"}, "[6]": {"system": "Bacillus", "assay": "Minimum inhibitory concentration against Bacillus sp. E", "assay_type": "functional"}, "[7]": {"system": "Bacillus", "assay": "Minimum inhibitory concentration against Bacillus sp. TA", "assay_type": "functional"}, "[8]": {"system": "Penicillium digitatum", "assay": "Minimum inhibitory concentration against Penicillium digitatum 0184", "assay_type": "functional"}, "[9]": {"system": "Staphylococcus aureus", "assay": "Minimum inhibitory concentration against Staphylococcus aureus 82", "assay_type": "functional"}, "[10]": {"system": "Escherichia coli", "assay": "Minimum inhibitory concentration against Escherichia coli 94", "assay_type": "functional"}, "[11]": {"system": "Bacillus subtilis", "assay": "Minimum inhibitory concentration against Bacillus subtilis 558", "assay_type": "functional"}, "[12]": {"system": "Acinetobacter calcoaceticus", "assay": "Minimum inhibitory concentration against Acinetobacter calcoaceticus PCl3", "assay_type": "functional"}, "[13]": {"system": "Streptomyces sp.", "assay": "Minimum inhibitory concentration against Gram positive filament Streptomyces cellulose 097", "assay_type": "functional"}, "[14]": {"system": "Klebsiella pneumoniae", "assay": "Minimum inhibitory concentration against Klebsiella pneumoniae 369", "assay_type": "functional"}, "[15]": {"system": "Micrococcus luteus", "assay": "Minimum inhibitory concentration against Micrococcus luteus PCI", "assay_type": "functional"}, "[16]": {"system": "Serratia marcescens", "assay": "Minimum inhibitory concentration against Serratia marcescens SM", "assay_type": "functional"}, "[17]": {"system": "Priestia megaterium", "assay": "Minimum inhibitory concentration against Bacillus megaterium 164", "assay_type": "functional"}, "[18]": {"system": "Serratia", "assay": "Minimum inhibitory concentration against Serratia sp.101", "assay_type": "functional"}, "[19]": {"system": "Enterococcus faecium", "assay": "Minimum inhibitory concentration against Streptococcus faecium ATCC 8043", "assay_type": "functional"}, "[20]": {"system": "Pseudomonas aeruginosa", "assay": "Minimum inhibitory concentration against Pseudomonas aeruginosa 56", "assay_type": "functional"}, "[21]": {"system": "Candida albicans", "assay": "Minimum inhibitory concentration against yeast Candida albicans 155", "assay_type": "functional"}, "[22]": {"system": "Paecilomyces variotii", "assay": "Minimum inhibitory concentration against Paecilomyces varioti M16", "assay_type": "functional"}}, "note": "The source made the active and inactive calls. No cut-off for these calls is given here.", "data": [{"smiles": "C=C1COC2C(=O)N(Cc3ccccc3)[C@@H]1C(=O)N2Cc1ccccc1", "values": [{"measurement": "MIC", "setting": "[1]", "result": "inactive"}]}, {"smiles": "C[C@](O)(CO)[C@H](O)C12NC(=O)[C@](O)(CCCO1)NC2=O", "values": [{"measurement": "MIC", "setting": "[1]", "result": "inactive"}]}, {"smiles": "C=CC1COC2NC(=O)[C@H]1NC2=O", "note": "(some centres not stated)", "values": [{"measurement": "MIC", "setting": "[2]", "result": "inactive"}]}, {"smiles": "C=C1CCOC2NC(=O)[C@H]1NC2=O", "values": [{"measurement": "MIC", "setting": "[1]", "result": "inactive"}]}, {"smiles": "O=C1[C@@H]2CCCOC(C(=O)N2Cc2ccccc2)N1Cc1ccccc1", "values": [{"measurement": "MIC", "setting": "[1]", "result": "inactive"}]}, {"smiles": "C[C@](O)(CO)[C@H](O)C12NC(=O)[C@H](CCCO1)NC2=O", "values": [{"measurement": "MIC", "setting": "[1]", "result": "inactive"}]}, {"smiles": "O=C1N[C@@]2(O)CCCOC1NC2=O", "values": [{"measurement": "MIC", "setting": "[1]", "result": "inactive"}]}, {"smiles": "CS[C@@]12CCCOC(C(=O)N1C)N(C)C2=O", "values": [{"measurement": "MIC", "setting": "[1]", "result": "inactive"}]}, {"smiles": "O=C1C2OCCC[C@@](O)(C(=O)N2Cc2ccccc2)N1Cc1ccccc1", "values": [{"measurement": "MIC", "setting": "[1]", "result": "inactive"}]}, {"smiles": "CN1C(=O)[C@@H]2CCOC1C(=O)N2C", "values": [{"measurement": "MIC", "setting": "[2]", "result": "inactive"}]}, {"smiles": "C=C1CCOC2([C@@H](O)[C@@](C)(O)CO)NC(=O)[C@@]1(O)NC2=O", "values": [{"measurement": "MIC", "setting": "[1]", "result": "inactive"}]}, {"smiles": "C=C1CCOC2C(=O)N(Cc3ccccc3)[C@]1(O)C(=O)N2Cc1ccccc1", "values": [{"measurement": "MIC", "setting": "[3]", "result": "> 1000", "unit": "µg/mL"}, {"measurement": "MIC", "setting": "[4]", "result": "> 1000", "unit": "µg/mL"}, {"measurement": "MIC", "setting": "[5]", "result": "> 1000", "unit": "µg/mL"}, {"measurement": "MIC", "setting": "[6]", "result": "> 1000", "unit": "µg/mL"}, {"measurement": "MIC", "setting": "[7]", "result": 250, "unit": "µg/mL"}, {"measurement": "MIC", "setting": "[8]", "result": "> 1000", "unit": "µg/mL"}, {"measurement": "MIC", "setting": "[9]", "result": "> 1000", "unit": "µg/mL"}, {"measurement": "MIC", "setting": "[10]", "result": "> 1000", "unit": "µg/mL"}, {"measurement": "MIC", "setting": "[11]", "result": 250, "unit": "µg/mL"}, {"measurement": "MIC", "setting": "[12]", "result": "> 1000", "unit": "µg/mL"}, {"measurement": "MIC", "setting": "[13]", "result": 500, "unit": "µg/mL"}, {"measurement": "MIC", "setting": "[14]", "result": "> 1000", "unit": "µg/mL"}, {"measurement": "MIC", "setting": "[15]", "result": 500, "unit": "µg/mL"}, {"measurement": "MIC", "setting": "[16]", "result": "> 1000", "unit": "µg/mL"}, {"measurement": "MIC", "setting": "[17]", "result": 500, "unit": "µg/mL"}, {"measurement": "MIC", "setting": "[18]", "result": "> 1000", "unit": "µg/mL"}, {"measurement": "MIC", "setting": "[19]", "result": "> 1000", "unit": "µg/mL"}, {"measurement": "MIC", "setting": "[20]", "result": "> 1000", "unit": "µg/mL"}, {"measurement": "MIC", "setting": "[21]", "result": "> 1000", "unit": "µg/mL"}, {"measurement": "MIC", "setting": "[22]", "result": "> 1000", "unit": "µg/mL"}]}, {"smiles": "O=C1[C@@H]2[C@H](CO)COC(C(=O)N2Cc2ccccc2)N1Cc1ccccc1", "values": [{"measurement": "MIC", "setting": "[1]", "result": "inactive"}]}, {"smiles": "C=C1CCOC2C(=O)N(Cc3ccccc3)[C@@H]1C(=O)N2Cc1ccccc1", "values": [{"measurement": "MIC", "setting": "[1]", "result": "inactive"}]}, {"smiles": "C=C1CCOC2NC(=O)[C@@]1(O)NC2=O", "values": [{"measurement": "MIC", "setting": "[2]", "result": "inactive"}]}, {"smiles": "COc1ccc(N2C(=O)[C@@H]3CCCOC2C(=O)N3c2ccc(OC)cc2)cc1", "values": [{"measurement": "MIC", "setting": "[1]", "result": "inactive"}]}, {"smiles": "C=CC1COC2C(=O)N(Cc3ccccc3)[C@@H]1C(=O)N2Cc1ccccc1", "note": "(some centres not stated)", "values": [{"measurement": "MIC", "setting": "[1]", "result": "inactive"}]}, {"smiles": "CN1C(=O)[C@]2(C(O)c3ccccc3)CCCOC1C(=O)N2C", "note": "(some centres not stated)", "values": [{"measurement": "MIC", "setting": "[1]", "result": "inactive"}]}, {"smiles": "CN1C(=O)[C@@H]2CCCOC1C(=O)N2C", "values": [{"measurement": "MIC", "setting": "[1]", "result": "inactive"}]}, {"smiles": "COc1ccc(CN2C(=O)[C@@H]3CCCOC2C(=O)N3Cc2ccc(OC)cc2)cc1", "values": [{"measurement": "MIC", "setting": "[1]", "result": "inactive"}]}, {"smiles": "O=C1N[C@H]2CCCOC1NC2=O", "values": [{"measurement": "MIC", "setting": "[1]", "result": "inactive"}]}, {"smiles": "CSC12OCCC[C@@](C)(C(=O)N1C)N(C)C2=O", "values": [{"measurement": "MIC", "setting": "[2]", "result": "inactive"}]}, {"smiles": "CN1C(=O)[C@]2(C(=O)c3ccccc3)CCOC1C(=O)N2C", "values": [{"measurement": "MIC", "setting": "[2]", "result": "inactive"}]}, {"smiles": "C=C1CCO[C@]2([C@@H](O)[C@@](C)(O)CO)NC(=O)[C@@]1(O)NC2=O", "note": "[BICOZAMYCIN]", "values": [{"measurement": "MIC", "setting": "[3]", "result": "> 1000", "unit": "µg/mL"}, {"measurement": "MIC", "setting": "[4]", "result": "> 1000", "unit": "µg/mL"}, {"measurement": "MIC", "setting": "[5]", "result": 1000, "unit": "µg/mL"}, {"measurement": "MIC", "setting": "[6]", "result": "> 1000", "unit": "µg/mL"}, {"measurement": "MIC", "setting": "[7]", "result": "> 1000", "unit": "µg/mL"}, {"measurement": "MIC", "setting": "[8]", "result": "> 1000", "unit": "µg/mL"}, {"measurement": "MIC", "setting": "[9]", "result": "> 1000", "unit": "µg/mL"}, {"measurement": "MIC", "setting": "[10]", "result": 250, "unit": "µg/mL"}, {"measurement": "MIC", "setting": "[11]", "result": "> 1000", "unit": "µg/mL"}, {"measurement": "MIC", "setting": "[12]", "result": 1000, "unit": "µg/mL"}, {"measurement": "MIC", "setting": "[13]", "result": 500, "unit": "µg/mL"}, {"measurement": "MIC", "setting": "[14]", "result": 250, "unit": "µg/mL"}, {"measurement": "MIC", "setting": "[15]", "result": "> 1000", "unit": "µg/mL"}, {"measurement": "MIC", "setting": "[16]", "result": "> 1000", "unit": "µg/mL"}, {"measurement": "MIC", "setting": "[17]", "result": "> 1000", "unit": "µg/mL"}, {"measurement": "MIC", "setting": "[18]", "result": "> 1000", "unit": "µg/mL"}, {"measurement": "MIC", "setting": "[19]", "result": "> 1000", "unit": "µg/mL"}, {"measurement": "MIC", "setting": "[20]", "result": "> 1000", "unit": "µg/mL"}, {"measurement": "MIC", "setting": "[21]", "result": "> 1000", "unit": "µg/mL"}, {"measurement": "MIC", "setting": "[22]", "result": "> 1000", "unit": "µg/mL"}]}]}
